# Data published in US9624182B2, “Compounds as lysophosphatidic acid receptor antagonists” (Amira Pharmaceuticals, Inc., priority 2009, dated 2017).
# pIC50: −log10 of the molar value.
# Target: T1, human LPA1 (Homo sapiens, UniProt Q92633)
# T1 construct: the full-length cDNA for human LPA1 was obtained by PCR of the reverse transcription reaction; expressed in transfected cells
# Assay: LPA1 calcium flux assay
# Assay type: cell-based
# Details: CHO cells expressing human LPA1, stimulated with 10 nM LPA; read-out: HLPA1 Ca Flux IC50
# Method: A 1.1 kb cDNA encoding the human LPA1 receptor was cloned from human lung. Human lung RNA (Clontech Laboratories, Inc. USA) was reverse transcribed using the RETROscript kit (Ambion, Inc.) and the full-length cDNA for human LPA1 was obtained by PCR of the reverse transcription reaction. The nucleotide sequence of the cloned human LPA1 was determined by sequencing and confirmed to be identical to the published human LPA1 sequence (An et al. Biochenm. Biophys. Res. Commun. 231:619 (1997). The cDNA was cloned into the pCDNA5/FRT expression plasmid and transfected in CHO cells using lipofectamine 2000 (Invitrogen Corp., USA). Clones stably expressing human LPA1 were selected using hygromycin and identified as cells that show Ca-influx in response to LPA.
# Human LPA1 or LPA3 expressing CHO cells are seeded at 20,000-45,000 cells per well in a 96-well poly-D-lysine coated plate one or two days before the assay. Prior to the assay, the cells are washed once with PBS and then cultured in serum-free media overnight. On the day of the assay, a calcium indicator dye (Calcium 4, Molecular Devices) in assay buffer (HBSS with Ca^2+ and Mg^2+ and containing 20 mM Hepes and 0.3% fatty-acid free human serum albumin) is added to each well and incubation continued for 1 hour at 37° C. 10 μl of test compounds in 2.5% DMSO are added to the cells and incubation continued at room temperature for 30 minutes. Cells are the stimulated by the addition of 10 nM LPA and intracellular Ca^2+ measured using the Flexstation 3 (Molecular Devices). IC50s are determined using Graphpad prism analysis of drug titration curves.
# T1 sequence (Q92633 whole entry): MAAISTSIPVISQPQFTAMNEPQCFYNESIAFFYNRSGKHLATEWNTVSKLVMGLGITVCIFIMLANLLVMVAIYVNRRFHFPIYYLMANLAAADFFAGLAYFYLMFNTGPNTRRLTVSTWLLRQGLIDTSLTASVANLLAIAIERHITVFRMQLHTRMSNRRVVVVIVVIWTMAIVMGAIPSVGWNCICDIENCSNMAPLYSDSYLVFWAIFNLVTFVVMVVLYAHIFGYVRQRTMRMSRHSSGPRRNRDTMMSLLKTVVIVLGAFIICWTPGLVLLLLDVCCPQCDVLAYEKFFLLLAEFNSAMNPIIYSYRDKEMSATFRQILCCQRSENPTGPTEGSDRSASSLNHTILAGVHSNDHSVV
row,pIC50,SMILES
1,> 6.52,"Cc1noc(-c2ccc(-c3ccc([C@H]4C[C@H]4C(=O)O)cc3)cc2)c1CC(F)(F)CCc1ccccc1 (relative stereo) [Compound 1-135, (cis)-2-{4′-[4-(2,2-Difluoro-4-phenyl-butyl)-3-methyl-isoxazol-5-yl]-biphenyl-4-yl}-cyclopropanecarboxylic acid]"
2,4.30 to 6.00,"Cc1noc(-c2ccc(-c3ccc(C4(C(=O)O)CC4)cc3)cc2)c1/C=C/S(=O)(=O)Cc1ccccc1 [Compound 1-259, 1-{4′-[3-Methyl-4-((E)-2-phenylmethanesulfonyl-vinyl)-isoxazol-5-yl]-biphenyl-4-yl}-cyclopropanecarboxylic acid]"
3,6.00 to 6.52,"Cc1noc(-c2ccc(-c3ccc(C4(C(=O)O)CC4)cc3)cc2)c1NS(=O)(=O)Cc1ccccc1Cl [Compound 1-14, 1-{4′-[4-(2-Chloro-phenylmethanesulfonylamino)-3-methyl-isoxazol-5-yl]-biphenyl-4-yl}-cyclopropanecarboxylic acid]"
4,> 6.52,"CC(=O)N(CCc1ccccc1)Cc1c(C)noc1-c1ccc(-c2ccc(C3(C(=O)O)CC3)cc2)cc1 [Compound 1-30, 1-(4′-{4-[(Acetyl-phenethyl-amino)-methyl]-3-methyl-isoxazol-5-yl}-biphenyl-4-yl)-cyclopropanecarboxylic acid]"
5,> 6.52,"Cc1noc(-c2ccc(-c3ccc([C@H]4C[C@H]4C(=O)O)cc3)cc2)c1CSCCc1ccccc1 (single isomer, unassigned) [Compound 1-149, (cis)-2-[4′-(3-Methyl-4-phenethylsulfanylmethyl-isoxazol-5-yl)-biphenyl-4-yl]-cyclopropanecarboxylic acid]"
6,< 4.30,"Cc1noc(-c2ccc(-c3ccccc3CC(=O)O)cc2)c1NC(C)CCc1ccc2c(c1)OCO2 (centres unmarked) [Compound 1-232, {4′-[4-(3-Benzo[1,3]dioxol-5-yl-1-methyl-propylamino)-3-methyl-isoxazol-5-yl]-biphenyl-2-yl}-acetic acid]"
7,> 6.52,"Cc1noc(-c2ccc(-c3ccc(CCC(=O)O)cc3)cc2)c1[C@H](O)CSCc1ccccc1 [Compound 1-273, 3-{4′-[4-((S)-2-Benzylsulfanyl-1-hydroxy-ethyl)-3-methyl-isoxazol-5-yl]-biphenyl-4-yl}-propionic acid]"
8,> 6.52,"Cc1noc(-c2ccc(-c3ccc(C4CC4C(=O)O)cc3)cc2)c1[C@H](O)COCc1ccccc1 (single isomer, unassigned) [Compound 1-216]"
9,4.30 to 6.00,"Cc1noc(-c2ccc(-c3ccc(C4(C(=O)O)CC4)cc3)cc2)c1CCN(Cc1ccccc1)Cc1ccccc1 [Compound 1-37, 1-{4′-[4-(2-Dibenzylamino-ethyl)-3-methyl-isoxazol-5-yl]-biphenyl-4-yl}-cyclopropanecarboxylic acid]"
10,> 6.52,"Cc1noc(-c2ccc(-c3ccc(C4(C(=O)O)CC4)cc3)cc2)c1NC(=O)NCc1ccccc1 [Compound 1-6, 1-{4′-[4-(3-Benzyl-ureido)-3-methyl-isoxazol-5-yl]-biphenyl-4-yl}-cyclopropanecarboxylic acid]"
11,6.00 to 6.52,"Cc1noc(-c2ccc(-c3ccc(CC(=O)O)cc3)cc2)c1NC(C)CCc1cccc(C(F)(F)F)c1 (centres unmarked) [Compound 1-181, (4′-{3-Methyl-4-[1-methyl-3-(3-trifluoromethyl-phenyl)-propylamino]-isoxazol-5-yl}-biphenyl-4-yl)-acetic acid]"
12,4.30 to 6.00,"Cc1noc(-c2ccc(-c3ccc(C4(C(=O)O)CC4)cc3)cc2)c1NC(C)CCCO (centres unmarked) [Compound 1-230, 1-{4′-[4-(4-Hydroxy-1-methyl-butylamino)-3-methyl-isoxazol-5-yl]-biphenyl-4-yl}-cyclopropanecarboxylic acid]"
13,> 6.52,"CCOc1cccc(Nc2c(C)noc2-c2ccc(-c3ccc(C4(C(=O)O)CC4)cc3)cc2)n1 [Compound 1-294, 1-{4′-[4-(6-Ethoxy-pyridin-2-ylamino)-3-methyl-isoxazol-5-yl]-biphenyl-4-yl}-cyclopropanecarboxylic acid]"
14,4.30 to 6.00,"Cc1noc(-c2ccc(-c3ccc(C4(C(=O)O)CC4)cc3)cc2)c1NC(=O)N(C)[C@H](C)c1ccccc1 [Compound 1-9, 1-(4′-{3-Methyl-4-[3-methyl-3-((R)-1-phenyl-ethyl)-ureido]-isoxazol-5-yl}-biphenyl-4-yl)-cyclopropanecarboxylic acid]"
15,> 6.52,"Cc1noc(-c2ccc(-c3ccc(C4(CC(=O)O)CC4)cc3)cc2)c1NC(C)c1cc2ccccc2s1 (centres unmarked) [Compound 1-286, (1-{4′-[4-(1-Benzo[b]thiophen-2-yl-ethylamino)-3-methyl-isoxazol-5-yl]-biphenyl-4-yl}-cyclopropyl)-acetic acid]"
16,> 6.52,"Cc1noc(-c2ccc(-c3ccc(C4(CC(=O)O)CC4)cc3)cc2)c1NC(C)CCc1cccc(Cl)c1 (centres unmarked) [Compound 1-184, [1-(4′-{4-[3-(3-Chloro-phenyl)-1-methyl-propylamino]-3-methyl-isoxazol-5-yl}-biphenyl-4-yl)-cyclopropyl]-acetic acid]"
17,4.30 to 6.00,"Cc1noc(-c2ccc(-c3ccccc3C3(C(=O)O)CC3)cc2)c1C(O)CCCc1ccccc1 (centres unmarked) [Compound 1-203, 1-{4′-[4-(1-Hydroxy-4-phenyl-butyl)-3-methyl-isoxazol-5-yl]-biphenyl-2-yl}-cyclopropanecarboxylic acid]"
18,> 6.52,"Cc1noc(-c2ccc(-c3ccc(C4(C(=O)O)CC4)cc3)cc2)c1C=CCC(C)c1ccccc1 (centres unmarked) [Compound 1-110, 1-{4′-[3-Methyl-4-(4-phenyl-pent-1-enyl)-isoxazol-5-yl]-biphenyl-4-yl}-cyclopropanecarboxylic acid]"
19,4.30 to 6.00,"Cc1noc(-c2ccc(-c3ccc(C4(C(=O)O)CC4)cc3)cc2)c1C(=O)NCCc1ccccc1 [Compound 1-38, 1-[4′-(3-Methyl-4-phenethylcarbamoyl-isoxazol-5-yl)-biphenyl-4-yl]-cyclopropanecarboxylic acid]"
20,4.30 to 6.00,"Cc1noc(-c2ccc(-c3ccc(C4(C(=O)O)CC4)cc3)cc2)c1CC(=O)N[C@H]1c2ccccc2C[C@H]1O [Compound 1-92, 1-(4′-{4-[((1S,2R)-2-Hydroxy-indan-1-ylcarbamoyl)-methyl]-3-methyl-isoxazol-5-yl}-biphenyl-4-yl)-cyclopropanecarboxylic acid]"
21,> 6.52,"Cc1noc(-c2ccc(-c3ccc(C4(C(=O)O)CC4)cc3)cc2)c1NC(C)COc1ccccc1 (centres unmarked) [Compound 1-279, 1-{4′-[3-Methyl-4-(1-methyl-2-phenoxy-ethylamino)-isoxazol-5-yl]-biphenyl-4-yl}-cyclopropanecarboxylic acid]"
22,4.30 to 6.00,"Cc1noc(-c2ccc(-c3ccc(C4(C(=O)O)CC4)cc3)cc2)c1CSCC(=O)c1ccccc1 [Compound 1-120, 1-{4′-[3-Methyl-4-(2-oxo-2-phenyl-ethylsulfanylmethyl)-isoxazol-5-yl]-biphenyl-4-yl}-cyclopropanecarboxylic acid]"
23,> 6.52,"Cc1noc(-c2ccc(-c3ccc(C4(C(=O)O)CC4)cc3)cc2)c1/C=C\CC(C)c1ccccc1 (centres unmarked) [Compound 1-112, 1-{4′-[3-Methyl-4-((Z)-4-phenyl-pent-1-enyl)-isoxazol-5-yl]-biphenyl-4-yl}-cyclopropanecarboxylic acid]"
24,4.30 to 6.00,"Cc1ccc2nc(NCc3c(C)noc3-c3ccc(-c4ccc(C5(C(=O)O)CC5)cc4)cc3)sc2c1 [Compound 1-195, 1-(4′-{3-Methyl-4-[(6-methyl-benzothiazol-2-ylamino)-methyl]-isoxazol-5-yl}-biphenyl-4-yl)-cyclopropanecarboxylic acid]"
25,4.30 to 6.00,"Cc1noc(-c2ccc(-c3ccc(C4(C(=O)O)CC4)cc3)cc2)c1NC(=O)N(C)C(C)C [Compound 1-8, 1-{4′-[4-(3-Isopropyl-3-methyl-ureido)-3-methyl-isoxazol-5-yl]-biphenyl-4-yl}-cyclopropanecarboxylic acid]"
26,6.00 to 6.52,"Cc1noc(-c2ccc(-c3ccc(C4(C(=O)O)CC4)cc3)cc2)c1NCCC(C)(C)C [Compound 1-151, 1-{4′-[4-(3,3-Dimethyl-butylamino)-3-methyl-isoxazol-5-yl]-biphenyl-4-yl}-cyclopropanecarboxylic acid]"
27,> 6.52,"Cc1noc(-c2ccc(-c3ccc(C4(C(=O)O)CC4)cc3)cc2)c1C(O)/C=C/c1cccc(C(F)(F)F)c1 (centres unmarked) [Compound 1-161, 1-(4′-{4-[(E)-1-Hydroxy-3-(3-trifluoromethyl-phenyl)-allyl]-3-methyl-isoxazol-5-yl}-biphenyl-4-yl)-cyclopropanecarboxylic acid]"
28,> 6.52,"Cc1noc(-c2ccc(-c3ccc(CCC(=O)O)cc3)cc2)c1[C@H](O)CSCc1cccc(C(F)(F)F)c1 [Compound 1-274, 3-(4′-{4-[(S)-1-Hydroxy-2-(3-trifluoromethyl-benzylsulfanyl)-ethyl]-3-methyl-isoxazol-5-yl}-biphenyl-4-yl)-propionic acid]"
29,4.30 to 6.00,"Cc1noc(-c2ccc(-c3ccc(C4(C(=O)O)CC4)cc3)cc2)c1/C=C/[S+]([O-])Cc1ccccc1 (single isomer, unassigned) [Compound 1-263, 1-(4′-{3-Methyl-4-[(E)-2-(phenylmethanesulfinyl)-vinyl]-isoxazol-5-yl}-biphenyl-4-yl)-cyclopropanecarboxylic acid]"
